Measured values: patent US20070238755A1, “Methods to treat and/or prevent radiation- and/or chemical-induced toxicity in non-malignant tissue” (priority 2005, published 2007)

Legend:
Type in all cases: in vivo, male Sprague-Dawley rats
[1] = tested on: irradiated rats (locally irradiated scrotal hernia containing a loop of distal ileum); assay: Quantitative immunohistochemistry of irradiated intestine, intestinal fibrosis Experiment 1
From the text: (§1) A particularly relevant animal model for radiation toxicity is described in Wang et al., J Thromb Haemost, 2(11):2027-2035 (2004)). In brief, a “scrotal hernia” containing a 4 cm loop of distal ileum is surgically created in male Sprague-Dawley rats. After a 3 week recovery period, the scrotal hernia is irradiated locally without exposing the rest of the animal to ionizing radiation.
(§2) Scrotal hernias were created in rats which subsequently received one of three different treatments subcutaneously: (i) vehicle control (i.e., 0.4% methyl cellulose); (ii) 10 mg/kg/day of Formula 2; and (iii) 15 mg/kg/day of Formula 2. The treatments were administered for 24 days total, starting the day before irradiation (i.e., from Day-1 to Day 23). Beginning on Day 1, the scrotal hernia of each animal was irradiated locally by exposure to 5 Gy for 9 days. After an additional 2 week observation period following treatment, the rats were euthanized and assessed for radiation toxicity using these endpoints: structural radiation injury, immunohistochemistry (e.g., neutrophil infiltration, collagen type III deposition, smooth muscle cell proliferation, extracellular matrix-associated TGF-β immunoreactivity, collagen type I deposition, macrophages (ED-2)), and morphomety.
Quantitative immunohistochemistry was used to determine: (i) neutrophil infiltration by mycloperoxidase stalninig; (ii) intestinal smooth muscle cell proliferation using proliferation cell nuclear antigen (PCNA) labeling index; (iii) collagen deposition by staining for collagen types I and III; (iv) extracellular matrix-associated transforming growth factor (TGF)-β, and (v) macrophage ED-2. Immunohistochemical staining was performed with appropriate positive and negative controls using the avidin-biotin complex (ABC) technique previously described by Wang et al., J Thromb Haemost, 2(11):2027-2035 (2004). Primary antibodies, catalog numbers, incubation times, dilutions, and companies were: polyclonal antimyeloperoxidase antibody (A0398, 2 h, 1:100; Dako, Carpinteria, Calif., USA); monoclonal anti-PCNA antibody (NA03, 2 h, 1:100; Calbiochem, Cambridge, Mass., USA); polyclonal antibodies against collagen type I (1310-01, 2 h, 1:100 dilution; Southern Biotechnology Associates, Birmingham, Alab., USA); collagen type III (1330-01, 2 h, 1:100 dilution, Southern Biotechnology Associates); polyclonal rabbit anti-TGF-P antibody (AB-100-NA, 2 h, 1:300 dilution; R&D, Minneapolis, Minn., USA); and ED-2 (MCA342, 2 h, 1:100 dilution, Serotec, Rahway, N.C., USA).
Computerized image analysis was performed as previously described (see, Wang et al., Thromb Haemost, 87(1):122-128(2002); Wang et al., J Pharmacol Exp Ther, 297(1):35-42 (2001)). Neutrophil infiltration was assayed by identifying myeloperoxidase-positive cells as previously described (see, Wang et al., Thromb Haemost, 87(1):122-128(2002)). Areas positive for collagen types I and III deposition were measured as previously described 'see, Raviv et al., World J Urol, 15(l1):50-55 (1997); and Wang et al., Thromb Haemost, 87(1):122-128(2002)). Extracellular matrix-associated TGF-β immunoreactivity was measured as previously described (see, Richter et al., Radiother Oncol, 39(3):243-251 (1996)).
Differences in endpoints as a function of drug treatment (PAR-1 inhibitor vs. vehicle) were assessed using fixed-factor analysis of variance and post hoc comparisons with Newman-Keul's test (NCSS2000 for Windows 95, NCSS, Kaysville, Utah, USA). Univariate comparisons were performed with the Mann-Whitney U-test using StatXact 5 (Cytel Software, Cambridge, Mass., USA), a software package for exact non-parametric inference.

[2] = tested on: irradiated rats (locally irradiated scrotal hernia containing a loop of distal ileum); assay: Morphometry of irradiated intestine, intestinal fibrosis Experiment 1; conditions: trend is worded for vehicle-treated animals as compared to Formula 2-treated animals
From the text: as §1
as §2, with “Beginning on Day 1, the scrotal hernia of each animal was irradiated locally by exposure to 5 Gy for 9 days.” left out
The thickness of the intestinal wall proper (submucosa, muscularis externa, and subserosa, but excluding the mucosa) was measured with an eyepiece linear microruler. […]

[3] = tested on: irradiated rats (locally irradiated scrotal hernia containing a loop of distal ileum); assay: Structural radiation injury (Radiation Injury Score) in the scrotal hernia intestinal fibrosis model, Experiment 1; conditions: 10 or 15 mg/kg/day s.c. for 24 days (Day -1 to Day 23); 5 Gy for 9 days; compared to vehicle; p=0.003 Jonckheere-Terpstra test; FIG. 1
From the text: as §1
as §2, with “The treatments were administered for 24 days total, starting the day before irradiation (i.e., from Day-1 to Day 23). Beginning on Day 1, the scrotal hernia of each animal was irradiated locally by exposure to 5 Gy for 9 days.” left out
Structural radiation injury was assessed in hematoxylin-eosin-stained sections using a radiation injury score system previously described (see, Langberg et al., Acta Oncol, 31(7):781-787 (1992); and Hauer-Jensen et al., Acta Radiol Oncol, 22(4):299-303 (1983)). […]

[4] = trend is worded for vehicle-treated animals as compared to Formula 2-treated animals, p=0.4 Jonckheere-Terpstra test

In the case of `CCOC(=O)N[C@@H]1CC[C@@H]2[C@@H](C1)C[C@H]1C(=O)O[C@H](C)[C@H]1[C@H]2/C=C/c1ccc(-c2ccccn2)cn1` [Formula 2], the “collagen type III deposition” value ([1]; 10 or 15 mg/kg/day s.c. for 24 days, 5 Gy for 9 days, compared to vehicle, p=0.005 Jonckheere-Terpstra test, FIG. 3) is reported as “reduced”, the “smooth muscle cell proliferation (PCNA positive cells)” value ([1]; 10 or 15 mg/kg/day s.c. for 24 days, 5 Gy for 9 days, compared to vehicle, p=0.04 Jonckheere-Terpstra test, FIG. 4) is reported as “reduced” and the “neutrophil infiltration (myeloperoxidase-positive cells)” value ([1]; 10 or 15 mg/kg/day s.c. for 24 days, 5 Gy for 9 days, compared to vehicle, p=0.05 Jonckheere-Terpstra test, FIG. 2) is reported as “reduced”. For the same compound, the “extracellular matrix-associated TGF-β immunoreactivity” value ([1]; trend is worded for vehicle-treated animals as compared to Formula 2-treated animals, p=0.1 Jonckheere-Terpstra test) was “trend toward increased levels”, the “collagen type I deposition” value [1, 4] was “trend toward increased levels” and the “macrophages (ED-2)” value [1, 4] was “trend toward increased levels”. The “intestinal wall thickening (thickness of the intestinal wall proper)” value ([2]; p=0.2 Jonckheere-Terpstra test) was “trend toward intestinal wall thickening in vehicle-treated animals”, the serosal thickening ([2]; p=0.3 Jonckheere-Terpstra test) was “trend toward serosal thickening in vehicle-treated animals” and the “structural radiation injury as measured by Radiation Injury Score” value [3] was “less”.
